Assay results: patent publication US20160003808A1, “MOLECULAR TARGETS AND COMPOUNDS, AND METHODS TO IDENTIFY THE SAME, USEFUL IN THE TREATMENT OF DISEASES ASSOCIATED WITH EPITHELIAL MESENCHYMAL TRANSITION” (GALAPAGOS NV, priority 2013, published 2016)

Experiments:
Fibronectin (FN) = assay: EMT on target screen, FN read-out; assay type: cell-based, human; conditions: for OT FN Screen Z-score 2: as E11, duplicate 2; for Both (shRNA is a hit again in both OT assays, Yes/No): on target validation, Table 16; for OT FN Screen Z-score 1: robust Z-score, HBEC donor Br299, duplicate 1, cut-off Z ≦ −1.25
MMP10 = assay: EMT on target screen, MMP10 read-out; assay type: cell-based, human; conditions: for OT MMP10 Screen Z-score 2: as E13, duplicate 2; for OT MMP10 Screen Z-score 1: robust Z-score, HBEC donor Br299, duplicate 1, cut-off Z ≦ −1.25

| Substance | OT FN Screen Z-score 2 (Fibronectin (FN)) | Both (shRNA is a hit again in both OT assays, Yes/No) (Fibronectin (FN)) | OT FN Screen Z-score 1 (Fibronectin (FN)) | OT CTB assay Z-score 1 (HBEC) | OT CTB assay Z-score 2 (HBEC) | OT MMP10 Screen Z-score 2 (MMP10) | OT MMP10 Screen Z-score 1 (MMP10) |
| --- | --- | --- | --- | --- | --- | --- | --- |
| 50 (GAGGCAGCCTTGTACTCTT; chemistry not given here) [compound 50] | -4.42 | no | -2.42 | -0.51 | 2.33 | -0.49 | 1.32 |
| 69 (GATGGAGCGCTTACACTAC; chemistry not given here) [compound 69] | -5.75 | no | -4.37 | -3.34 | -1.32 | -3.43 | -4.95 |
| 66 (GAAGGAGCTACTCATCTTC; chemistry not given here) [compound 66] | -4.82 | yes | -2.81 | -2.25 | -4.39 | 0.70 | -1.93 |
| 57 (CCAAACCTGTGTCAACTTC; chemistry not given here) [compound 57] | -3.69 | no | -8.59 | -1.43 | 0.38 | -1.94 | -0.60 |
| 52 (TGAATACTATGTGGGATTC; chemistry not given here) [compound 52] | -3.74 | yes | -3.30 | -3.43 | -3.45 | 0.95 | 1.96 |
| 72 (GAGTTGGACAGTGGAGGAC; chemistry not given here) [compound 72] | -7.31 | yes | -3.99 | -3.13 | -4.22 | -6.59 | -4.52 |
| 61 (CAATTCCCAAGGACAGGCT; chemistry not given here) [compound 61] | -1.44 | no | -1.65 | 0.59 | 0.86 | -2.31 | -2.21 |
| 46 (ACTTCTGAGAGGTCACAGC; chemistry not given here) [compound 46] | -7.86 | yes | -8.84 | -2.43 | -5.13 | -2.42 | -2.20 |
| 60 (AACCTGGCCATTCAGACCC; chemistry not given here) [compound 60] | -2.96 | yes | -2.56 | -7.10 | -2.00 | -0.06 | -1.88 |
| 54 (GACTGGAAAGCGACGGGTC; chemistry not given here) [compound 54] | -3.15 | no | -3.47 | -4.02 | -5.83 | 0.94 | 0.62 |
| 56 (TGATGGTTACCGCAAGATC; chemistry not given here) [compound 56] | -3.69 | yes | -2.74 | 0.64 | -2.23 | -5.05 | -3.35 |
| 70 (GAGTTTGCCTACTCAGAGG; chemistry not given here) [compound 70] | -4.05 | no | -4.52 | 0.19 | 1.51 | -1.35 | -4.35 |
| 51 (GGATCTTGGGTCCTATCCC; chemistry not given here) [compound 51] | -3.08 | no | -2.90 | -0.73 | -2.03 | -0.23 | -0.02 |
| 47 (GAACACGTACAAAGTCATT; chemistry not given here) [compound 47] | -5.03 | no | -4.88 | -7.55 | -4.92 | -6.24 | -11.24 |
